Experimental data as given in patent US20240245682A1, “ALPHA-V-BETA-8 INTEGRIN INHIBITORS AND USES THEREOF” (Pliant Therapeutics, Inc., priority 2022, published 2024).
Several values for one entry are separate records, joined by “and”; a condition that tells them apart may be missing. Equal values may be shown once. Entries after “also recorded” stand apart in the source; their conditions may differ.

What was measured:
[1] = system: human breast and melanoma tumor tissues; assay: Ex vivo cultured human breast and melanoma tumor tissues (Example B9); format: cell-based
Method: Inhibition of αvβ1 and TGF-β mediated by Compound 39 of the examples was monitored via cell adhesion assays and transcriptomic analyses. αvβ1 protein expression was evaluated on human tumor tissues via immunohistochemistry using an indigenously developed anti-αvβ1 antibody. Efficacy of Compound 39 monotherapy and in combination with ICB was evaluated in syngeneic mouse models bearing EMT6 and Pan02 tumors. Animal survival, tumor growth, transcriptomic analyses, tissue fibrosis, and TILs were monitored along with circulating lymphocytes and cytokines. Tissue and circulating biomarkers of response to Compound 39 were identified. Human breast and melanoma tumor tissues were cultured ex vivo and Compound 39 activity was assessed by measuring CD8+ cytotoxic T cells and tumor apoptosis.

Pan02 tumors = assay: Pan02 (pancreatic) syngeneic tumor model (Example B6); format: in vivo, C57BL/6 mice
Method: (§1) The therapeutic impact of Compound 39 of the examples in combination with anti PD-1 was studied for several […] mouse models, as shown in Table B-3. For each model, four dosing regimens were studied, using a group size of 10 mice per dosing regimen per model, and a total of 40 mice per model.
(§2) Mice were shaved and tumor cells as indicated in Table B-3 were subcutaneously implanted in a 100 μl cell suspension that was subcutaneously injected into the front/rear flank of each mouse (as indicated in Table B-3).
(§3) There was no dosing holiday. Dietary supplements were uniform for all animals in the same group.
Animals were monitored weekly for changes in tumor volume. Tumors were measured at least once a week using calipers. Tumor volume was calculated using the equation: (longest diameter*shortest diameter^2)/2. […]
Tumor tissues (50 to 80 mg) were homogenized using metal beads in pre-chilled RINO screw cap tubes, using lysis matrix (MP Lysing Matrix S [⅛″], 2 mL Tube MP Biomedical Cat #116925100) on MP Fast Prep 24 instrument. […] Hybridized reactions were read on nCounter MAX (Nanostring), and data were analyzed using nCounter software.
(§4) Table B-5 lists the catalog numbers of the antibodies used in the immunohistochemical (IHC) studies. Quantification of staining was done using the HALO software package (Indica Labs, Albaquerque, NM).

TKCC-05 tumors = assay: Orthotopic TKCC-05 (PDX-05) PDX model of PDAC (Example B12); format: in vivo, NSG mice; conditions: FIG. 26B
Method: (§5) Table B-9 depicts the study design to determine the efficacy of selective αvβ1/αvβ8 SMI in the orthotopic ECM-high PDX models of PDAC. Table B-10 depicts the study design for the TKCC-10 PDX model.
Table B-11 depicts the study design for the TKCC-05 model.
TKCC-05 cells were inoculated in the pancreas of […] mice and were allowed to grow into tumors for 1 week. The mice were then treated according to schema outlined in […], and FIG. 26A, which depicts a schematic diagram of the treatment regimen in the TKCC-05 PDAC PDX model for this study. FIG. 26B depicts a graph associated with the quantification of tumor weights in mice treated with Compound 39, Reference compound B, and ADWA-11 Ab for the study associated with Example B12. FIG. 26C depicts a graph associated with the quantification of tumor weights in mice treated with G/A, Compound 39+G/A, Reference compound B+G/A, and ADWA-11+G/A for the study associated with Example B12. P values by one-way ANOVA.

[2] = system: human breast tumor tissue; assay: Ex vivo cultured human breast tumor tissue, immunofluorescence of fibrotic markers; format: cell-based
Method: Integrin αVβ1 is expressed in multiple solid tumors and drives the adhesion of cancer-associated fibroblasts (CAFs) to latent TGFβ. In human tumor tissues and in CAFs, αVβ1 protein expression was evaluated via immunohistochemistry (IHC) and custom […] assay, respectively. CAF adhesion to the TGFβ latency-associated peptide (LAP) was quantified in the presence or absence of Compound 39 in vitro by high-content microscopy imaging. The activity of Compound 39 in combination with anti-mPD-1 on fibrotic markers was evaluated in the EMT6 tumor model in vivo by gene expression analysis using the Nanostring® nCounter analysis system. Compound 39-treated human breast tumor tissue was analyzed for fibrotic marker α-smooth muscle actin (αSMA) using immunofluorescence.
αvβ1 protein expression was evaluated in human tumor tissues via immunohistochemistry. αvβ1 protein levels in primary human CAFs isolated from pancreatic carcinoma, lung adenocarcinoma, and lung squamous cell carcinoma were quantified via custom electrochemiluminescence assay. CAF adhesion to latency associated peptide (LAP), the integrin-binding region of latent TGF-β, was quantified in the presence or absence of Compound 39 of the examples and a small molecule selective inhibitor of αvβ1 by high-content imaging in vitro. […]

EMT6 tumors = assay: EMT6 (breast) syngeneic tumor model (Example B6); format: in vivo, Balb/c mice
Method: as §1, §2, §3
Animals were monitored weekly for changes in tumor volume. Tumors were measured at least once a week using calipers. Tumor volume was calculated using the equation: (longest diameter*shortest diameter^2)/2.
The study was terminated four weeks after the first dose or when the tumor sizes reached greater than 3000 mm^3, whichever was first. Mice were euthanized and tumors were collected.
Tumor tissues (50 to 80 mg) were homogenized using metal beads in pre-chilled RINO screw cap tubes, using lysis matrix (MP Lysing Matrix S [⅛″], 2 mL Tube MP Biomedical Cat #116925100) on MP Fast Prep 24 instrument. Tumor RNA extraction from the tumor homogenate used the Ambion Purelink, RNA kit (Cat #12183018A) according to the manufacturers' protocol. A total of 100 ng RNA was used for the Nanostring analysis of the immuno-oncology and fibrosis panel, and 300 ng RNA was used for the analysis of the integrin panel. RNA was hybridized to gene expression Plexset according to the manufacturers' protocol. Hybridized reactions were read on nCounter MAX (Nanostring), and data were analyzed using nCounter software.
as §4

TKCC-08 tumors = assay: Subcutaneous FNX-resistant TKCC-08 PDX model of PDAC (Example B12); format: in vivo, NSG mice
Method: as §5
Table B-12 depicts the study design for the TKCC-08 model.
FNX is a standard of care chemotherapy regimen for pancreatic ductal adenocarcinoma. However, the clinical response to FNX remains bleak. To assess if Compound 39 augmented the therapeutic benefit of FNX, Compound 39 was tested alone and in combination with FNX in the TKCC-08 model, which is made FNX-resistant by continuous exposure to the FNX.

[3] = Compound 39+α-PD1 vs vehicle+αPD1, FIG. 48, model not stated

Structure (SMILES): Cc1ncnc(Cl)c1C1(C(=O)N[C@@H](CCOCCCCc2ccc3c(n2)NCCC3)C(=O)O)CC1 [Compound 39, N-(1-(4-chloro-6-methylpyrimidin-5-yl)cyclopropane-1-carbonyl)-O-(4-(5,6,7,8-tetrahydro-1,8-naphthyridin-2-yl)butyl)-L-homoserine]
- cytotoxic CD8^+ T cells [1]: significant increase in cytotoxic CD8^+T cells
- fibrotic markers [1]: reduction in fibrotic markers
- tumor growth (Pan02 tumors; Pan02, FIG. 16A, 41): inhibited Pan02 tumor growth
- CD8^+ T cell infiltration (Pan02 tumors; in words, FIG. 16B, 43): increased T-cell infiltration
- mean tumor weight (TKCC-05 tumors; 30 days treatment): 0.23 ± 0.08 g and 0.228 ± 0.06 g
- tumor weight / tumor growth (TKCC-05 tumors; in words, 26C): significantly blocks tumor growth
- reduction of fibroblast activation marker αSMA ([2]; compared to vehicle-treated tissues, FIG. 106): 2.9 fold
- expression of fibrotic markers (αSMA, FAP) ([2]; in words): decreases; also recorded: reduced expression of fibrotic markers αSMA and FAP
- IFNγ gene signature (EMT6 tumors; [3]): increases
- TGFβ gene signatures (EMT6 tumors; [3]): Reduces
- fibrotic markers and tissue fibrosis in the tumor microenvironment (EMT6 tumors; Nanostring gene expression, Pico Sirius red, FIG. 107-112): reduces fibrotic markers; also recorded: significantly reduced fibrosis
- TGFβ activity (EMT6 tumors; compared to vehicle, FIG. 33, model not given): reduced TGFβ activity
- expression of IFNγ-regulated gene Granzyme B (EMT6 tumors; compared to vehicle, FIG. 34A): increased expression
- expression of IFNγ-regulated gene IFNγ (EMT6 tumors; compared to vehicle, FIG. 34B): increased expression
- expression of IFNγ-regulated gene CXCL9 (EMT6 tumors; compared to vehicle, FIG. 34C): increased expression
- expression of IFNγ-regulated gene PDL1 (EMT6 tumors; compared to vehicle, FIG. 34D): increased expression
- mean tumor weight (TKCC-08 tumors; FNX-resistant subcutaneous tumors, Compound 39 300 mg/kg BID oral, FNX i.v. weekly, FIG. 27B): 0.4 ± 0.15 g
- tumor growth and tumor weight (TKCC-08 tumors; in words, FIG. 27A, 27B): significantly reduced the tumor growth and the tumor weight
